We go through two compounds from patent publication US20220323412A1, “EXTRACELLULAR VESICLE-FENRETINIDE COMPOSITIONS, EXTRACELLULAR VESICLE-C-KIT INHIBITOR COMPOSITIONS, METHODS OF MAKING AND USES THEREOF” (priority 2020, published 2022).

SMILES strings stand for the structures.

The subject of data set [1] is MCF-7 breast cancer cells. The data set is described as follows: CellTiter-Glo Luminescent Cell Viability Assay. It counts as cell-based, human. As for the experimental part: EV-fenretinide was packaged in a manner similar to the protocol described in Example 2. EV-fenretinide was dosed onto MCF-7 breast cancer cells using the exemplary protocol below. Cell viability was measured using the Promega CellTiter-Glo® Luminescent Cell Viability Assay—a method of determining the number of viable cells in culture based on quantitation of the ATP present, an indicator of metabolically active cells.
Protocol steps: • 1. MCF-7 cells were cultured in Dulbecco's Modified Eagle's Medium (DMEM) supplemented with 10% exosome-free fetal bovine serum (FBS) supplemented with penicillin-streptomycin-glutamine (PSG; 100 units/mL penicillin, 100 μg/mL streptomycin and 2 mM L-glutamine) for 1-2 passages. • 2. MCF-7 cells were harvested, washed, counted and resuspended in culture medium (DMEM supplemented with 10% exosome-free FBS and PSG) at 5E5 cells/mL. • 3. The MCF-7 cells were seeded at 5E4 cells in a volume of 100 μL/well of culture medium in a white polystyrene 96-well tissue culture plate and incubated for 18-20 hrs at 37° C./5% CO2 humidified incubator. • 4. After 18-20 hrs of incubation, medium was removed from the wells and replaced with culture medium containing test agents. […] The plate was shaken for two minutes and then left to equilibrate for 10 minutes prior to reading the luminescence on a microplate reader (iD3-Molecular Devices).

Another data set deals with CD-1 IGS mice. The data set is described as follows: Toxicology: serum and blood chemistry, complete blood count. It counts as in vivo, mouse. The protocol:
Both arms were dosed via intravenous tail-vein injected at 0.23 mg/kg with a 4 mL/kg dose volume. The EV-fenretinide formulation was stored at −80° C. until injection into mice. Blood was collected at 2, 5, 10, 15, 30, 60, 120, 240, and 960 minutes, three mice were sacrificed at each time point, and tissue was collected at 30, 120 and 960 minutes. Spleen, liver, lung, kidney, brain and heart tissues were collected. Fenretinide amount in blood and tissue was measured via LC MS/MS mass spectrometry. Serum and hematology toxicology measurements were collected from the blood samples. Blood urea nitrogen (BUN), creatinine, and alanine aminotransferase were measured from serum.
Fenretinide-EVs and fenretinide-alone formulations were produced and dosed in the animal model as in Example 6. On the terminal blood draw of each animal, 20 μL of whole blood samples were used to measure complete blood count (CBC) on the Veterinary Hematology Analyzer (Hematrue, Heska).

Data set [2] in a line: CellTiter-Huor Cell Viability Assay. It counts as cell-based. Conditions: human, ARPE-19 retinal pigment epithelium cells, read-out: cell viability or growth of untreated control. The protocol:
EV-fenretinide was packaged and purified in a manner similar to the protocol described in Example 1. The extracellular vesicles used for packaging fenretinide was isolated from HEK293-F cells. A human retinal pigment epithelium (RPE) cell line, ARPE-19 (ATCC® CRL-2302™), isolated from normal eyes of an adult […], is treated with fenretinide alone or fenretinide-EV to examine the effect on viability of retinal pigment epithelium cells. ARPE-19 cells plated the night before were treated with fenretinide (resuspended in 100% DMSO) or fenretinide-EV (in PBS) at matched concentration of drug substance (active pharmaceutical ingredient (API)) dosed at either low (0.94 μM) or high (15 μM) fenretinide concentration. After 48 hrs at 37° C. in a humidified 5% CO2 incubator, cell viability is measured using CellTiter-Huor™ Cell Viability Assay (Promega) following the manufacturer's instructions to detect viable cells based on cell membrane integrity using a fluorogenic, cell-permeant, peptide substrate (Gly-Phe-AFC) which is cleaved to a fluorescent signal following entry into intact cells. The plate was read on plate reader at 380-400 nm excitation and —505 nm emission for live-cell fluorescence readout.

Data set [3] in a line: Retention and biodistribution of fenretinide in eye after intravitreal injection. Type of data set: in vivo, brown Norway rat. The conditions noted are these: 24-hrs after intravitreal 5 μL per eye; 94.8 uM fenretinide-EV or 90.9 uM fenretinide alone. The protocol: Eye biodistribution of fenretinide formulated as 90.9 uM free fenretinide (excipient: 5% Ethanol, 12.5% Solutol-HS 15, 12.5% PEG 300, and 70% PBS) or 94.8 uM fenretinide-EV (in PBS) is administered to each eye of brown Norway rat (6 rats/treatment condition) by intravitreal injection (5 μL per eye). 24-hrs after administration, eyes were enucleated. Individual tissues were collected corresponding to cornea, conjunctiva, lens, vitreous humor, retina, RPE/choroid and sclera and analyzed for fenretinide content. In addition, total fenretinide content in each eye was also determined.

The conditions of data set [4]: cited from earlier work.
For data set [5] the following is noted: DrugBank DB05076; cited from earlier work.

For the compound `CC1=C(/C=C/C(C)=C/C=C/C(C)=C/C(=O)Nc2ccc(O)cc2)C(C)(C)CCC1` [Fenretinide, N[4-hydroxyphenyl]retinamide], the viability (commonly the share of living cells, or the viability signal relative to a control) at 40 µM in data set [1] (Homo sapiens, MCF7, MCF-7, 40 μM fenretinide, 48 hours) is roughly 20%. For the same compound, the “effect on cell viability over concentration” value in data set [1] (MCF-7, 0.625-40 μM, most notable after about 10 μM) is recorded as “dose-dependent cell viability inhibition”. Moreover, the “decrease in PLT (platelet concentration) versus Charles River general levels” value in the data set with CD-1 IGS mice (16 hrs after intravenous 0.2288 mg/kg) is recorded as 5 fold. Besides, the “adverse effects based on serum and blood chemistry results” value in the data set with CD-1 IGS mice (intravenous 0.23 mg/kg) is “did not exert apparent adverse effects”. The viability at 48 h, 0.94 μM in data set [2] (ARPE-19, 0.94 μM fenretinide equivalent) was found to be 85.5%. Also, the viability at 48 h, 15 μM in data set [2] (ARPE-19, 15 μM fenretinide equivalent) came to 31%. Besides, in data set [3], the “percentage of fenretinide remaining in eyes” value is 7%. For the same compound, the “solubility limit in water” value in data set [4] (water) was “about 1.71 μg/mL”. For the same compound, in data set [5], the logP entry was “greater than 6”.
With `Cc1nc(Nc2ncc(C(=O)Nc3c(C)cccc3Cl)s2)cc(N2CCN(CCO)CC2)n1` [dasatinib], the “solubility in water” value in data set [4] (Selleck Chem catalog) is “insoluble in water”.
